{"source": "ChEMBL document CHEMBL1127549", "about": "“Synthesis and delta-opioid receptor antagonist activity of a naltrindole analogue with a regioisomeric indole moiety” (J Med Chem, 1994)", "key": {"[1]": {"biological_target": "Delta-type opioid receptor (Mus musculus, UniProt P32300)", "sequence (P32300 whole entry)": "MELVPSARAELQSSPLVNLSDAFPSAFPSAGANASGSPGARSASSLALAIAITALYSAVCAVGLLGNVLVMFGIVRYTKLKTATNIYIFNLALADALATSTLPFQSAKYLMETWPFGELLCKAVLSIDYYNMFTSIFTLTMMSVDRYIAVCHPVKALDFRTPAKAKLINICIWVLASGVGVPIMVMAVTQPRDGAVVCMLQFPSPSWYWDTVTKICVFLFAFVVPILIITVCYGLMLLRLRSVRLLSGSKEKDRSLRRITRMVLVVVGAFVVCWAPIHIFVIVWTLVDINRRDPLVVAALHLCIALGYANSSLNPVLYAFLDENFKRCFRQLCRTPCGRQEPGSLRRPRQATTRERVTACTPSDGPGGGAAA", "assay": "Antagonist activity against delta-opioid receptor in mouse vas deferens in the presence of DADLE", "type": "functional, tissue-based"}, "[2]": {"biological_target": "T1, Kappa-type opioid receptor (Cavia porcellus, UniProt P41144)", "T1 sequence (P41144 whole entry)": "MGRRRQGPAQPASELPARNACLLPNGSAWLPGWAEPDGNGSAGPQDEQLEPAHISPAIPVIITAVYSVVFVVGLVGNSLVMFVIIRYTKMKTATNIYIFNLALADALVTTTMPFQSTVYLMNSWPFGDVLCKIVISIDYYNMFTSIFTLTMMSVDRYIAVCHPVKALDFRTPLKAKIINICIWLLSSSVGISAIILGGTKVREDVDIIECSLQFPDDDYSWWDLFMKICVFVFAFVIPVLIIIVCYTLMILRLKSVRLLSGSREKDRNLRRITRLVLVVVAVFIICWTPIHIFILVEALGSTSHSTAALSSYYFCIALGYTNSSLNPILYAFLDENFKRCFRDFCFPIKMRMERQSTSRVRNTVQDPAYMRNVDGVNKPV", "assay": "Antagonist activity against kappa-opioid receptor in guinea pig ileum in the presence of ethylketazocine", "type": "functional, tissue-based"}, "Mu-type opioid receptor [3]": {"biological_target": "T2, Mu-type opioid receptor (Cavia porcellus, UniProt P97266)", "T2 sequence (P97266 whole entry)": "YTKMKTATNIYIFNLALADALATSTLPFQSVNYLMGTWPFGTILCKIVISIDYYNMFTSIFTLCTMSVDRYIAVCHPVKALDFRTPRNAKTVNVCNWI", "assay": "Antagonist activity against mu-opioid receptor in guinea pig ileum in the presence of morphine", "type": "functional, tissue-based"}, "[4]": {"biological_target": "T1, Kappa-type opioid receptor", "assay": "Binding affinity against kappa-opioid receptor in guinea pig brain membranes", "type": "cell membranes, Membrane"}, "Mu-type opioid receptor [5]": {"biological_target": "T2, Mu-type opioid receptor", "assay": "Binding affinity against mu-opioid receptor in guinea pig brain membranes", "type": "cell membranes, Membrane"}}, "data": [{"smiles": "Oc1ccc2c3c1O[C@H]1c4[nH]c5ccccc5c4C[C@@]4(O)[C@@H](C2)N(CC2CC2)CC[C@]314", "note": "[NALTRINDOLE]", "values": [{"measurement": "IC50", "setting": "[1]", "result": 459000, "unit": "nM"}, {"measurement": "IC50", "setting": "[2]", "result": 2000, "unit": "nM"}, {"measurement": "IC50", "setting": "Mu-type opioid receptor [3]", "result": 11200, "unit": "nM"}]}, {"smiles": "Oc1ccc2c3c1O[C@H]1Cc4c([nH]c5ccccc45)[C@H]4[C@@H](C2)N(CC2CC2)CC[C@]314", "values": [{"measurement": "Ki", "setting": "[4]", "result": 33, "unit": "nM"}, {"measurement": "Ki", "setting": "Mu-type opioid receptor [5]", "result": 4.9, "unit": "nM"}, {"measurement": "IC50", "setting": "[1]", "result": 8200, "unit": "nM"}]}, {"smiles": "CN1CC[C@]23c4c5ccc(O)c4O[C@H]2Cc2c([nH]c4ccccc24)[C@H]3[C@H]1C5", "values": [{"measurement": "IC50", "setting": "[1]", "result": 1000, "unit": "nM"}, {"measurement": "IC50", "setting": "[2]", "result": 990, "unit": "nM"}, {"measurement": "IC50", "setting": "Mu-type opioid receptor [3]", "result": 920, "unit": "nM"}]}]}
